Source: patent publication US7985455B2, “Polymerizable liquid crystal compound, liquid crystal composition, and polymer” (JNC Corporation, priority 2007, dated 2011)

Experiment: Solubility in PGMEA: deposition of crystals from a PGMEA solution allowed to stand at room temperature over night
Format: physicochemical
Settings: 30% by weight PGMEA solution, room temperature (20° C.) over night
Experimental: The compound (1-8) was dissolved in PGMEA to prepare a 20% by weight PGMEA solution.
The compound (1-19) was dissolved in PGMEA to prepare a 20% by weight PGMEA solution.
The compound (1-42) was dissolved in PGMEA to prepare a 30% by weight PGMEA solution.
The compound (1-52) was dissolved in PGMEA to prepare a 30% by weight PGMEA solution.
The compound (M1-3) was dissolved in PGMEA to prepare a 10% by weight PGMEA solution. […] It is understood from the comparison between the result and Example 1 that the compound of the invention having an oxycarbonyloxy bonding group instead of an ether bond is excellent in solubility in PGMEA. Furthermore, it is understood from the comparison between Example 5 and Example 6 that the solubility in PGMEA is further enhanced by introducing an ether structure (—O—) to the alkylene in the side chain.

deposition of crystals from PGMEA solution: no deposition of crystals
SMILES: C=CC(=O)OCCOCCOC(=O)Oc1ccc(C(=O)Oc2ccc3c(c2)C(C)c2cc(OC(=O)c4ccc(OC(=O)OCCOCCOC(=O)C=C)cc4)ccc2-3)cc1 [Compound 1-42]
